Measured values reported in publication PMC8811472, “Systematic In Vitro Evaluation of a Library of Approved and Pharmacologically Active Compounds for the Identification of Novel Candidate Drugs for KMT2A-Rearranged Leukemia” (Frontiers in Oncology, 2022).
pIC50: −log10 of the molar value.

Tests used:
[1] = system: THP-1 and REH versus 2-Cl-ATP-sensitive KMT2A-r cells; assay: Resazurin-based viability assays of nucleoside analogs in leukemia cell line panel; parameters: species or system human
Method: (§1) The cytotoxicity of drugs was assessed through resazurin-based assays and the inhibitory concentration resulting in 50% reduction of cell survival relative to control (IC50) was calculated as previously described ([7]). In synergy studies, cells were exposed to a dilution series of compounds, as single agents or in combination, in resazurin-based assays (72 hours) as described ([8]–[10]). The occurrence of synergy was determined with the Bliss Independence model as previously described ([8]–[10]). Bliss Prediction curves indicated the predicted percentage viability of the cells when exposed to the combination of compounds if both compounds work additively together. Synergy was visualised as the presence of a lower cell viability upon combination of two compounds compared to the viability predicted based on the presence of an additive effect of the compounds (i.e., the viability curve of the combination runs below the Bliss Prediction curve). The percentage of apoptotic cells was assessed by annexin V and 7-Aminoactinomycin D (7-AAD) (BD Biosciences, Australia) flow cytometry as previously described ([7]).

[2] = system: REH cells; assay: 72-hour resazurin-based cytotoxicity assay, REH; parameters: species or system human; conditions: Homo sapiens, KMT2A-wt, pre-B cell ALL
Method: (§2) All cell lines used in this study were mycoplasma-free and have been authenticated using STR profiling. Cells were cultured as previously described ([7], [8]). Characteristics of the leukemia cell lines used in this study are described in Supplementary Table 1 . Peripheral blood mononuclear cells from healthy donors were purchased from Australian Red Cross.
as §1

[3] = system: MRC-5 cells; assay: 72-hour resazurin-based cytotoxicity assay, MRC-5; assay type: cell-based, human; conditions: Homo sapiens, MRC5, MRC-5, non-malignant, normal lung
Method: as §2, §1

[4] = system: WI-38 cells; assay: 72-hour resazurin-based cytotoxicity assay, WI-38; assay type: cell-based, human; conditions: Homo sapiens, WI-38, non-malignant, normal lung
Method: as §2
as §1, with “The percentage of apoptotic cells was assessed by annexin V and 7-Aminoactinomycin D (7-AAD) (BD Biosciences, Australia) flow cytometry as previously described ([7]).” left out

[5] = system: MCF-7 cells; assay: 72-hour resazurin-based cytotoxicity assay, MCF-7; assay type: cell-based, human; conditions: Homo sapiens, MCF7, MCF-7, breast adenocarcinoma
Method: as §2
as §1, with “The percentage of apoptotic cells was assessed by annexin V and 7-Aminoactinomycin D (7-AAD) (BD Biosciences, Australia) flow cytometry as previously described ([7]).” left out

[6] = system: Jurkat cells; assay: 72-hour resazurin-based cytotoxicity assay, Jurkat; parameters: species or system human; conditions: Homo sapiens, KMT2A-wt, childhood T-cell ALL
Method: as §2, §1

[7] = system: LNCaP cells; assay: 72-hour resazurin-based cytotoxicity assay, LNCaP; assay type: cell-based, human; conditions: Homo sapiens, prostate carcinoma
Method: as §2
as §1, with “The percentage of apoptotic cells was assessed by annexin V and 7-Aminoactinomycin D (7-AAD) (BD Biosciences, Australia) flow cytometry as previously described ([7]).” left out

[8] = system: U937 cells; assay: 72-hour resazurin-based cytotoxicity assay, U937; assay type: cell-based, human; conditions: Homo sapiens, U-937, U937, CALM-AF10, AML
Method: as §2
as §1, with “The percentage of apoptotic cells was assessed by annexin V and 7-Aminoactinomycin D (7-AAD) (BD Biosciences, Australia) flow cytometry as previously described ([7]).” left out

[9] = system: BE(2)C cells; assay: 72-hour resazurin-based cytotoxicity assay, BE(2)C; assay type: cell-based, human; conditions: Homo sapiens, childhood neuroblastoma
Method: as §2
as §1, with “The percentage of apoptotic cells was assessed by annexin V and 7-Aminoactinomycin D (7-AAD) (BD Biosciences, Australia) flow cytometry as previously described ([7]).” left out

[10] = system: PER-703 cells; assay: 72-hour resazurin-based cytotoxicity assay, PER-703; assay type: cell-based, human; conditions: Homo sapiens, PER-703, KMT2A-r t(1;11), infant ALL derived
Method: as §2
as §1, with “The percentage of apoptotic cells was assessed by annexin V and 7-Aminoactinomycin D (7-AAD) (BD Biosciences, Australia) flow cytometry as previously described ([7]).” left out

[11] = system: KOPN-8 cells; assay: 72-hour resazurin-based cytotoxicity assay, KOPN-8; parameters: species or system human; conditions: Homo sapiens, KOPN-8, KMT2A-r t(11;19), infant pre-B cell ALL
Method: as §2
as §1, with “The percentage of apoptotic cells was assessed by annexin V and 7-Aminoactinomycin D (7-AAD) (BD Biosciences, Australia) flow cytometry as previously described ([7]).” left out

[12] = system: H460 cells; assay: 72-hour resazurin-based cytotoxicity assay, H460; assay type: cell-based, human; conditions: Homo sapiens, NCI-H460, H460, lung carcinoma
Method: as §2
as §1, with “The percentage of apoptotic cells was assessed by annexin V and 7-Aminoactinomycin D (7-AAD) (BD Biosciences, Australia) flow cytometry as previously described ([7]).” left out

[13] = system: THP-1 cells; assay: 72-hour resazurin-based cytotoxicity assay, THP-1; assay type: cell-based, human; conditions: Homo sapiens, THP-1, KMT2A-r t(9;11), infant AML
Method: as §2, §1

[14] = system: peripheral blood mononuclear cells from healthy donors; assay: 72-hour resazurin-based viability assay, PBMC from healthy donors; assay type: cell-based, human; conditions: Homo sapiens, PBMC, 72 h, 72 h resazurin
Method: as §2, §1

[15] = system: MOLM-13 cells; assay: 72-hour resazurin-based cytotoxicity assay, MOLM-13; assay type: cell-based, human; conditions: Homo sapiens, MOLM-13, KMT2A-r t(9;11), AML
Method: as §2, §1

[16] = system: PER-485 cells; assay: Annexin V/7-AAD flow cytometry, PER-485; assay type: cell-based, human; conditions: KMT2A-r leukemia cells (PER-485)
Method: as §1

[17] = system: KP-MO-TS cells; assay: 72-hour resazurin-based cytotoxicity assay, KP-MO-TS; assay type: cell-based, human; conditions: Homo sapiens, CALM-AF10, AML
Method: as §2
as §1, with “The percentage of apoptotic cells was assessed by annexin V and 7-Aminoactinomycin D (7-AAD) (BD Biosciences, Australia) flow cytometry as previously described ([7]).” left out

[18] = system: MV4;11 cells; assay: 72-hour resazurin-based cytotoxicity assay, MV4;11; assay type: cell-based, human; conditions: Homo sapiens, MV4;11, KMT2A-r t(4;11), childhood AML
Method: as §2
as §1, with “The percentage of apoptotic cells was assessed by annexin V and 7-Aminoactinomycin D (7-AAD) (BD Biosciences, Australia) flow cytometry as previously described ([7]).” left out

[19] = system: PER-490 cells; assay: 72-hour resazurin-based cytotoxicity assay, PER-490; assay type: cell-based, human; conditions: Homo sapiens, PER-490, KMT2A-r t(4;11), infant ALL
Method: as §2
as §1, with “The percentage of apoptotic cells was assessed by annexin V and 7-Aminoactinomycin D (7-AAD) (BD Biosciences, Australia) flow cytometry as previously described ([7]).” left out

[20] = system: HEY cells; assay: 72-hour resazurin-based cytotoxicity assay, HEY; assay type: cell-based, human; conditions: Homo sapiens, ovarian carcinoma
Method: as §2
as §1, with “The percentage of apoptotic cells was assessed by annexin V and 7-Aminoactinomycin D (7-AAD) (BD Biosciences, Australia) flow cytometry as previously described ([7]).” left out

[21] = system: CEM cells; assay: 72-hour resazurin-based cytotoxicity assay, CEM; parameters: species or system human; conditions: Homo sapiens, CCRF-CEM, KMT2A-wt, childhood T-cell ALL
Method: as §2, §1

[22] = system: RS4;11 cells; assay: 72-hour resazurin-based cytotoxicity assay, RS4;11; parameters: species or system human; conditions: RS4;11, KMT2A-r t(4;11), pre-B cell ALL
Method: as §2, §1

[23] = system: SEMK2 cells; assay: 72-hour resazurin-based cytotoxicity assay, SEMK2; parameters: species or system human; conditions: Homo sapiens, SEMK2, KMT2A-r t(4;11), pre-B cell childhood ALL
Method: as §2, §1

[24] = system: PER-485 cells; assay: 72-hour resazurin-based cytotoxicity assay, PER-485; assay type: cell-based, human; conditions: PER-485, KMT2A-r t(4;11), infant ALL derived
Method: as §2, §1

[25] = system: KELLY cells; assay: 72-hour resazurin-based cytotoxicity assay, KELLY; assay type: cell-based, human; conditions: Homo sapiens, neuroblastoma
Method: as §2
as §1, with “The percentage of apoptotic cells was assessed by annexin V and 7-Aminoactinomycin D (7-AAD) (BD Biosciences, Australia) flow cytometry as previously described ([7]).” left out

[26] = system: PER-826 cells; assay: 72-hour resazurin-based cytotoxicity assay, PER-826; assay type: cell-based, human; conditions: Homo sapiens, PER-826, KMT2A-r complex t(11;19), infant ALL
Method: as §2
as §1, with “The percentage of apoptotic cells was assessed by annexin V and 7-Aminoactinomycin D (7-AAD) (BD Biosciences, Australia) flow cytometry as previously described ([7]).” left out

[27] = system: KMT2A-r and CALM-AF10 translocated leukemia cell lines; assay: Cytotoxicity in expanded cell line panel (range over sensitive lines); assay type: cell-based; conditions: Homo sapiens; 9 out of 11 KMT2A-r leukemia cell lines
Method: as §2
as §1, with “The percentage of apoptotic cells was assessed by annexin V and 7-Aminoactinomycin D (7-AAD) (BD Biosciences, Australia) flow cytometry as previously described ([7]).” left out

[28] = system: PER-785 cells; assay: 72-hour resazurin-based cytotoxicity assay, PER-785; assay type: cell-based, human; conditions: Homo sapiens, PER-785, KMT2A-r t(4;11), infant ALL
Method: as §2
as §1, with “The percentage of apoptotic cells was assessed by annexin V and 7-Aminoactinomycin D (7-AAD) (BD Biosciences, Australia) flow cytometry as previously described ([7]).” left out

[29] = system: 27/87 cells; assay: 72-hour resazurin-based cytotoxicity assay, 27/87; assay type: cell-based, human; conditions: Homo sapiens, 27/87, endometrioid ovarian cancer
Method: as §2
as §1, with “The percentage of apoptotic cells was assessed by annexin V and 7-Aminoactinomycin D (7-AAD) (BD Biosciences, Australia) flow cytometry as previously described ([7]).” left out

[30] = system: KMT2A-r PER-485 and KMT2A-wt REH cells; assay: 72-hour resazurin-based viability assay, PER-485 versus REH; assay type: cell-based, human
Method: as §1

Nc1nc(Cl)nc2c1ncn2[C@@H]1O[C@H](CO)[C@@H](O)[C@H]1O [2-CADO, 2-chloroadenosine]
response of 2-Cl-ATP-resistant cell lines THP-1 and REH compared with 2-Cl-ATP-sensitive KMT2A-r cells [1]: less responsive

Nc1nc(Cl)nc2c1ncn2[C@@H]1O[C@H](COP(=O)(O)OP(=O)(O)OP(=O)(O)O)[C@@H](O)[C@H]1O [2-Cl-ATP, 2-chloroadenosine triphosphate]
pIC50 [2]: < 4.70
pIC50 [3]: < 4.70
pIC50 [4]: < 4.70
pIC50 [5]: < 4.70
pIC50 [6]: < 4.70
pIC50 [7]: 4.83
pIC50 [8]: 5.46
pIC50 [9]: < 4.70
pIC50 [10]: 5.37
pIC50 [11]: 4.87
pIC50 [12]: < 4.70
pIC50 [13]: < 4.70
pIC50 ([14]; Donor 1): 5.27
pIC50 ([14]; Donor 2): 5.32
pIC50 ([14]; Donor 3): 5.38
pIC50 [15]: 5.25
induction of apoptosis (annexin V/7AAD) [16]: inducing apoptosis
pIC50 [17]: 5.36
pIC50 [18]: 5.57
pIC50 [19]: 5.35
pIC50 [20]: < 4.70
pIC50 [21]: 4.94
pIC50 ([22]; Homo sapiens, RS4-11, 72 h): 5.24
pIC50 [22]: 5.23
pIC50 [23]: 5.29
pIC50 ([24]; Homo sapiens): 5.60
pIC50 [25]: < 4.70
pIC50 [26]: 5.59
pIC50 [27]: 5.23 to 5.60
pIC50 [28]: 5.46
pIC50 [29]: < 4.70

CCCCCCCOc1ccc(O)cc1 [AC-45594]
selective cytotoxicity towards KMT2A-r leukemia cells [30]: did not display selective cytotoxicity

CN(C(=O)CN(CCO)CC(=O)N(C)C(C)(C)Cc1ccccc1)C(C)(C)Cc1ccccc1 [Oxethazaine, oxethazaine]
pIC50 [2]: 5.31
pIC50 [3]: < 4.70
pIC50 [6]: 4.72
pIC50 [13]: 4.82
pIC50 [15]: 5.42
pIC50 [21]: 4.97
pIC50 ([22]; Homo sapiens, RS4-11, 72 h): 5.05
pIC50 [23]: 5.05
pIC50 ([24]; Homo sapiens): 5.44

Nc1nc(Cl)nc2c1ncn2[C@H]1C[C@H](O)[C@@H](CO)O1 [cladribine]
response of 2-Cl-ATP-resistant cell lines THP-1 and REH compared with 2-Cl-ATP-sensitive KMT2A-r cells [1]: less responsive

O=C(O)c1cc2c(cn1)[nH]c1ccccc12 [β-CCB, β-carboline-3-carboxylate]
pIC50 [24]: 5.59
